Measurements reported in patent publication EP0348170A2, “Antiviral pyrimidine derivatives” (Lee, Moses Nam Fong, priority 1988, dated 1989).
≈ marks a conversion by molar mass, not a printed value.

Tests used:
HIV = test: Antiviral assay: inhibition of the killing of HIV-infected T4 lymphocytes (CEM cell line), XTT formazan readout; assay type: cell-based; details: for EC50: Human immunodeficiency virus 1, CCRF-CEM, read-out: EC50, Inhibition of the killing of HIV-infected T4-lymphocytes; for therapeutic index (IC50 divided by EC50): in cell culture
Experimental: The procedure used in the test for agents active against (HIV) is designed to detect agents acting at any stage of the virus reproductive cycle. The assay basically involves the killing of T4 lymphocytes by HIV. Small amounts of HIV are added to cells, and at least two complete cycles of virus reproduction are necessary to obtain the required cell killing. Agents which interact with virions, cells, or virus gene-products to interfere with viral activities will protect cells from cytolysis. The system is automated in several features to accommodate large numbers of candidate agents, and is generally designed to detect anti-HIV activity. However, compounds which degenerate or are rapidly metabolized in the culture conditions may not show activity in this screen. Also, while every attempt has been made to reduce variability, precise values for EC₅₀, IC₅₀, and Therapeautic Index are not possible. All tests are compared with a positive (AZT-treated) control done at the same time under identical conditions.
• 1. T4 lymphocytes (CEM cell line) are exposed to HIV at a virus to cell ratio approximately 0.05, and plated along with noninfected control cells in 96-well microtiter plates. • 2. The candidate agent is dissolved in dimethyl sulfoxide (unless otherwise instructed), then diluted 1:200 in cell culture medium. Further dilutions (half-log₁₀) are prepared before adding to an equal volume of medium containing either infected or noninfected cells. • 3. Cultures are incubated at 37 °C in a 5% carbon dioxide atmosphere for 6 or 7 days. • 4. The tetrazolium salt, XTT, is added to all wells, and cultures are incubated to allow formazan color development by viable cells. • 5. Individual wells are analyzed spectrophotometrically to quantitate formazan production, and in addition are viewed microscopically for detection of viable cells and confirmation of protective activity. • 6. Drug-treated virus-infected cells are compared with drug-treated noninfected cells and with other appropriate controls (untreated infected and untreated noninfected cells, drug-containing wells without cells, etc.) on the same plate. • 7. Data are reviewed in comparison with other tests done at the same time, and a determination about activity is made.

Vero cells = test: Effect on the replication of Vero cells; assay type: cell-based; details: for inhibition at 100 µg/mL: Conc. 100 ug/ml
Experimental: A second experiment shown in Table II herebelow was conducted to show the effects of various compounds on replication of Vero cells. […] This is indicative of much lower toxicity than AZT, (Compound No. 1) which inhibit a much higher percentage of these cells at a given concentration. TABLE II [table]

SMILES	EC50 (HIV) [µg/mL]	inhibition at 100 µg/mL (Vero cells; Chlorocebus sabaeus, Vero) [%]	therapeutic index (IC50 divided by EC50) (HIV)	also measured
Cc1cn([C@H]2C=C(C#N)[C@@H](CO)O2)c(=O)[nH]c1=O [Compound 4, 1-(3′-Cyano-2˝,3˝-didehydro-2′,3′-dideoxyribofuranosyl)thymine]	> 100	–	–	–
Cc1cn([C@H]2C=C(n3ccnn3)[C@@H](CO)O2)c(=O)[nH]c1=O [Compound 2, 1-[2′,3′-Didehydro-2′,3′-dideoxy-3′-(1˝-1˝,2˝,3˝-triazolo)ribofuranosyl]thymine]	> 100	–	–	–
C#CC1=C[C@H](n2cc(C)c(=O)[nH]c2=O)O[C@@H]1CO [Compound 3, 1-(2′,3′-Didehydro-2′,3′-dideoxy-3′-ethynylribofuranosyl)thymine]	> 100	–	–	–
Cc1cn([C@H]2C[C@H](N=[N+]=[N-])[C@@H](CO)O2)c(=O)[nH]c1=O [AZT, 3′-azido-3′-deoxythymidine, reference compound]	–	86	about 100	inhibition at 10 µg/mL (Vero cells; Chlorocebus sabaeus, Vero, Conc. 10 ug/ml): 21%
Cc1nnc(S(=O)(=O)C2=C[C@H](n3cc(C)c(=O)[nH]c3=O)O[C@@H]2CO)s1 [Compound 5, 1-[2′,3′-Didehydro-2′,3′-dideoxy-3′-(2˝-sulfono-5˝-methyl-1˝,3˝,4˝-thiadiazolo)ribofuranosyl]thymine]	4.9 (≈ 12.7 µM)	20	~170	inhibition at 50 µg/mL (Vero cells; Chlorocebus sabaeus, Vero, Conc. 50 ug/ml): 0%; inhibition at 75 µg/mL (Vero cells; Chlorocebus sabaeus, Vero, Conc. 75 ug/ml): 10%; inhibition of Vero cells, in words (Vero cells; fast growing Vero cells): little inhibition
